Measurements taken from patent US20260248787A9, “MEDICAMENT FOR TREATING CANCER COMPRISING OPTICALLY ACTIVE AZABICYCLO RING DERIVATIVE” (Sumitomo Pharma Co., Ltd., priority 2023, published 2026).

Test system: MOLM-13 cells
Assay: Tumor-bearing mice transplanted with MOLM-13 cells, with venetoclax and azacitidine, T/C (Example 10)
Format: in vivo
Conditions: MOLM-13 tumor-bearing mice, oral, 15 days
Method: The present compound was weighed and dissolved in 0.5 w/v % Methyl Cellulose 400 solution to give the compound concentrations of 20 mg/mL and 10 mg/mL. Venetoclax was weighed and suspended in a mixed solution of Phosal 50 propylene glycol (60%)/Polyethylene glycol-400 (30%)/Ethanol (10%) to give the compound concentration of 5 mg/mL. Azacitidine was weighed and dissolved in saline to give the compound concentration of 0.3 mg/mL.
MOLM-13 cells (DSMZ) were intradermally implanted around the ventral region of 5-week old NOD. CB17-PrkdcSCID/J mice (female, The Jackson Laboratory Japan) at 1×10^6 cells/mouse. […] The tumor volume was measured over time from the start of the administration, and the reduction effect of the tumor volume due to the compound-administration was evaluated. The tumor volume was calculated by the following formula using short axis and long axis of the tumor measured with an electronic caliper (Mitutoyo).
The control administration group in which only the solvent was administered and the test substance administration group were compared, and T/C was calculated using the following formula to evaluate the antitumor effect.

Compound: C=C1C[C@@H]2CC[C@H]1[C@@H](C(=O)N1CCC3(CC1)CN(c1ncncc1Oc1ccc(F)cc1C(=O)N(C(C)C)C(C)C)C3)N2 [the present compound, 5-fluoro-2-[(4-{7-[(1S,3S,4R)-5-methylidene-2-azabicyclo[2.2.2]octane-3-carbonyl]-2,7-diazaspiro[3.5]nonan-2-yl}pyrimidin-5-yl)oxy]-N,N-di(propan-2-yl)benzamide]
- T/C (100 mg/kg): 22.6%
- T/C (200 mg/kg): 8.4%
